Data: ChEMBL document CHEMBL1201862, “PubChem BioAssay data set” (2004)
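Following 48 hours of exposure in 96-well plates, responses at five concentrations were used to interpolate endpoints linearly. The concentration for 50% growth inhibition is given as GI50.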 Active and inactive are the calls of the source. Rule as the data show it: active = GI50 up to about 1.1 µM and inactive = higher.

How the values were obtained:
Experiment in all cases: NCI anticancer screen, dose series, 48 h
[1] = test system: LOX IMVI
[2] = test system: NCI-H226
[3] = test system: SK-MEL-28
[4] = test system: A549
[5] = test system: MOLT-4
[6] = test system: SNB-19
[7] = test system: KM12
[8] = test system: HL-60
[9] = test system: TK-10
[10] = test system: OVCAR-8
[11] = test system: U-251
[12] = test system: K562
[13] = test system: RXF 393
[14] = test system: SK-MEL-2
[15] = test system: 786-0
[16] = test system: SNB-75
[17] = test system: UACC-62
[18] = test system: SK-MEL-5
[19] = test system: OVCAR-5

Measured: GI50

O=c1c2ccccc2[nH]c(=S)n1-c1ccc(Br)cc1
inactive: [1] 48.5 µM | [2] > 100 µM | [3] > 100 µM | [4] 33.3 µM | [5] 76 µM | [6] > 100 µM | [7] > 100 µM | [8] > 100 µM | [9] > 100 µM | [10] 95.5 µM | [11] > 100 µM | [12] 43 µM | [13] > 100 µM | [14] > 100 µM | [15] 80.7 µM | [16] 30.7 µM

c1ccc2c(c1)Cc1c(Cc3csc4ccccc34)ccc3cccc-2c13
inactive: [17] > 100 µM | [18] > 100 µM | [3] > 100 µM | [4] > 100 µM | [5] > 100 µM | [6] > 100 µM | [7] > 100 µM | [8] > 100 µM | [19] > 100 µM | [9] > 10 µM | [10] > 100 µM | [11] > 100 µM | [12] 45.9 µM | [13] > 100 µM | [14] > 100 µM | [15] > 100 µM | [16] 19.7 µM

O=[N+]([O-])C(=C1c2ccccc2-c2ccccc21)[N+](=O)[O-]
inactive: [17] 49.3 µM | [1] 83.4 µM | [2] 69.2 µM | [3] > 100 µM | [4] 38.5 µM | [5] 32.6 µM | [6] 97.5 µM | [7] 57.5 µM | [8] 29.2 µM | [19] 91.2 µM | [9] > 100 µM | [10] > 100 µM | [11] > 100 µM | [12] 43.8 µM | [13] > 100 µM | [14] > 100 µM | [15] > 100 µM

CN(CCCN1C(=O)c2cccc3cc([N+](=O)[O-])cc(c23)C1=O)CCN(C)CCCN1C(=O)c2cccc3cc([N+](=O)[O-])cc(c23)C1=O
inactive: [17] 17 µM | [18] 17.4 µM | [2] > 39.3 µM | [3] 25.5 µM | [4] 19.2 µM | [5] 1.51 µM | [6] > 39.3 µM | [7] 24.7 µM | [8] 19.6 µM | [19] > 39.3 µM | [9] > 39.3 µM | [10] 2.74 µM | [11] 15.2 µM | [12] 4.94 µM | [13] 33 µM | [14] 13.3 µM | [15] 13.6 µM | [16] 20.4 µM

NC(CCCCNCc1ccccc1O)C(=O)O (configuration not stated)
inactive: [17] > 100 µM | [18] > 100 µM | [1] > 100 µM | [2] > 100 µM | [3] > 100 µM | [4] > 100 µM | [5] > 100 µM | [6] > 100 µM | [7] > 100 µM | [8] > 100 µM | [19] > 100 µM | [9] > 100 µM | [10] > 100 µM | [11] > 100 µM | [12] > 100 µM | [14] > 100 µM | [15] > 100 µM | [16] 93.5 µM

CS(=O)(=O)Oc1cccc(/C=N/N=C(\N)NO)c1
inactive: [17] 4.84 µM | [2] 23.3 µM | [3] > 100 µM | [4] 21.8 µM | [6] 64.9 µM | [7] 25.1 µM | [8] 19 µM | [19] 36 µM | [9] 14.7 µM | [10] 33.2 µM | [11] 27.7 µM | [12] 19.1 µM | [13] 37.4 µM | [14] 34.8 µM | [15] 19.3 µM | [16] 2.96 µM
